# Data: PubChem BioAssay (NCI)
# “And” between values parts separate entries of the source, which are not always exact repeats. Equal entries are not always repeated.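 48-hour exposure; five concentrations; linearly interpolated endpoints. Abbreviation: GI50, concentration required for 50% inhibition of growth. Definition used: TGI = concentration required for complete inhibition of growth.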
# How the values were obtained:
# Test in all cases: DTP human tumour cell line panel, 48 h
# OVCAR-3 ovarian = tested on: OVCAR-3 ovarian
# 786-0 renal = tested on: 786-0 renal
# T-47D breast = tested on: T-47D breast
# EKVX NSCLC = tested on: EKVX NSCLC
# COLO 205 colon = tested on: COLO 205 colon
# SF-539 CNS = tested on: SF-539 CNS
# MCF7 breast = tested on: MCF7 breast
# HOP-92 NSCLC = tested on: HOP-92 NSCLC
# PC-3 prostate = tested on: PC-3 prostate
# NCI-H522 lung = tested on: NCI-H522 lung
# MDA-MB-231 breast = tested on: MDA-MB-231 breast
# MOLT-4 leukemia = tested on: MOLT-4 leukemia
# OVCAR-4 ovarian = tested on: OVCAR-4 ovarian
# KM12 colon = tested on: KM12 colon
# NCI/ADR-RES ovarian = tested on: NCI/ADR-RES ovarian
# HCT-116 colon = tested on: HCT-116 colon
# HT29 colon = tested on: HT29 colon
# A498 renal = tested on: A498 renal
# SN12C renal = tested on: SN12C renal
# UACC-62 melanoma = tested on: UACC-62 melanoma
# A549 NSCLC = tested on: A549 NSCLC
# SR leukemia = tested on: SR leukemia
# SK-MEL-5 melanoma = tested on: SK-MEL-5 melanoma
# BT-549 breast = tested on: BT-549 breast
# SF-295 CNS = tested on: SF-295 CNS
# SF-268 CNS = tested on: SF-268 CNS
# OVCAR-8 ovarian = tested on: OVCAR-8 ovarian
# NCI-H226 lung = tested on: NCI-H226 lung
# OVCAR-5 ovarian = tested on: OVCAR-5 ovarian
# MALME-3M melanoma = tested on: MALME-3M melanoma
# RPMI-8226 leukemia = tested on: RPMI-8226 leukemia
# UO-31 renal = tested on: UO-31 renal
# SNB-75 CNS = tested on: SNB-75 CNS
# HS 578T breast = tested on: HS 578T breast
# NCI-H460 lung = tested on: NCI-H460 lung
# MDA-N = tested on: MDA-N
# HCC-2998 colon = tested on: HCC-2998 colon
# UACC-257 melanoma = tested on: UACC-257 melanoma
# SK-MEL-2 melanoma = tested on: SK-MEL-2 melanoma
# TK-10 renal = tested on: TK-10 renal
# U251 CNS = tested on: U251 CNS
# CAKI-1 renal = tested on: CAKI-1 renal
# MDA-MB-435 = tested on: MDA-MB-435
# M14 melanoma = tested on: M14 melanoma
# RXF 393 renal = tested on: RXF 393 renal
# DU-145 prostate = tested on: DU-145 prostate
# SNB-19 CNS = tested on: SNB-19 CNS
# HCT-15 colon = tested on: HCT-15 colon
# NCI-H23 lung = tested on: NCI-H23 lung
# CCRF-CEM leukemia = tested on: CCRF-CEM leukemia
# IGROV1 ovarian = tested on: IGROV1 ovarian
# SW-620 colon = tested on: SW-620 colon
# HOP-62 NSCLC = tested on: HOP-62 NSCLC
# K-562 leukemia = tested on: K-562 leukemia
# LOX IMVI melanoma = tested on: LOX IMVI melanoma
# ACHN renal = tested on: ACHN renal
# SK-MEL-28 melanoma = tested on: SK-MEL-28 melanoma
# SK-OV-3 ovarian = tested on: SK-OV-3 ovarian
# HL-60(TB) leukemia = tested on: HL-60(TB) leukemia
smiles,measurement,setting,value
CC#Cc1cc2c(cc1O)CC[C@@H]1[C@@H]2CC[C@]2(C)[C@@H](O)CC[C@@H]12,GI50,OVCAR-3 ovarian,0.337 µM
same,TGI,OVCAR-3 ovarian,3.26 µM
same,TGI,786-0 renal,35.1 µM
same,TGI,T-47D breast,> 89.6 µM
same,TGI,EKVX NSCLC,26 µM
same,TGI,COLO 205 colon,33.4 µM
same,GI50,SF-539 CNS,0.939 µM
same,TGI,SF-539 CNS,6.04 µM
same,TGI,MCF7 breast,64.3 µM
same,TGI,HOP-92 NSCLC,26.9 µM
same,TGI,PC-3 prostate,39 µM
same,TGI,NCI-H522 lung,2.71 µM
same,TGI,MDA-MB-231 breast,46.2 µM
same,TGI,MOLT-4 leukemia,17.2 µM
same,TGI,OVCAR-4 ovarian,62 µM
same,TGI,KM12 colon,14.1 µM
same,TGI,NCI/ADR-RES ovarian,10.3 µM
same,GI50,HCT-116 colon,0.48 µM
same,TGI,HCT-116 colon,17.3 µM
same,TGI,HT29 colon,30.5 µM
same,TGI,A498 renal,27.9 µM
same,TGI,SN12C renal,22.8 µM
same,GI50,UACC-62 melanoma,0.503 µM
same,TGI,UACC-62 melanoma,16.7 µM
same,TGI,A549 NSCLC,> 37.8 µM
same,TGI,SR leukemia,25.7 µM
same,TGI,SK-MEL-5 melanoma,13.8 µM
same,TGI,BT-549 breast,24.5 µM
same,TGI,SF-295 CNS,2.73 µM
same,TGI,SF-268 CNS,> 100 µM
same,TGI,OVCAR-8 ovarian,19.9 µM
same,TGI,NCI-H226 lung,17.8 µM
same,TGI,OVCAR-5 ovarian,48.4 µM
same,TGI,MALME-3M melanoma,18.3 µM
same,TGI,RPMI-8226 leukemia,> 66.1 µM
same,TGI,UO-31 renal,39 µM
same,TGI,SNB-75 CNS,27.6 µM
same,TGI,HS 578T breast,29.5 µM
same,TGI,NCI-H460 lung,20.2 µM
same,TGI,MDA-N,0.547 µM
same,TGI,HCC-2998 colon,19.2 µM
same,TGI,UACC-257 melanoma,28.1 µM
same,TGI,SK-MEL-2 melanoma,15.1 µM
same,TGI,TK-10 renal,> 91.3 µM
same,TGI,U251 CNS,7.81 µM
same,TGI,CAKI-1 renal,> 69.6 µM
same,TGI,MDA-MB-435,0.814 µM
same,TGI,M14 melanoma,17.7 µM
same,TGI,RXF 393 renal,13.8 µM
same,TGI,DU-145 prostate,46.9 µM
same,TGI,SNB-19 CNS,29.1 µM
same,TGI,HCT-15 colon,14.2 µM
same,TGI,NCI-H23 lung,10.6 µM
same,TGI,CCRF-CEM leukemia,> 100 µM
same,TGI,IGROV1 ovarian,38.1 µM
same,TGI,SW-620 colon,11.1 µM
same,TGI,HOP-62 NSCLC,16 µM
same,TGI,K-562 leukemia,> 100 µM
same,TGI,LOX IMVI melanoma,19.5 µM
same,TGI,ACHN renal,> 69.6 µM
same,TGI,SK-MEL-28 melanoma,23.7 µM
same,TGI,SK-OV-3 ovarian,> 62.2 µM
Cc1ccc(CC2(OCCN(C)C)CCC(C(C)(C)C)CC2)cc1 (centres undefined),TGI,OVCAR-3 ovarian,25.8 µM and 27.2 µM
same,TGI,786-0 renal,4.45 µM and 3.7 µM
same,TGI,T-47D breast,8.34 µM and 6.33 µM
same,TGI,EKVX NSCLC,21.6 µM and 28 µM
same,TGI,COLO 205 colon,3.98 µM and 3 µM
same,TGI,SF-539 CNS,4.55 µM and 8.81 µM
same,TGI,MCF7 breast,7.74 µM and 8.45 µM
same,TGI,PC-3 prostate,13.7 µM and 15.2 µM
same,TGI,NCI-H522 lung,9.28 µM and 10.8 µM
same,TGI,MDA-MB-231 breast,19 µM and 18.8 µM
same,TGI,MOLT-4 leukemia,4.11 µM and 4.8 µM
same,TGI,OVCAR-4 ovarian,15.2 µM and 16.6 µM
same,TGI,KM12 colon,13 µM and 10.4 µM
same,TGI,NCI/ADR-RES ovarian,21.5 µM and 22.3 µM
same,TGI,HCT-116 colon,6.73 µM and 6.24 µM
same,TGI,HT29 colon,5.15 µM and 5.9 µM
same,TGI,A498 renal,28.6 µM and 27.1 µM
same,TGI,SN12C renal,17.6 µM and 17.8 µM
same,TGI,UACC-62 melanoma,5.48 µM and 10 µM
same,TGI,A549 NSCLC,14 µM and 20.4 µM
same,TGI,SR leukemia,4.67 µM and 5.58 µM
same,TGI,SK-MEL-5 melanoma,2.94 µM and 2.97 µM
same,TGI,BT-549 breast,16.1 µM and 19.8 µM
same,TGI,SF-295 CNS,9.86 µM and 9.5 µM
same,TGI,SF-268 CNS,27.9 µM and 23.5 µM
same,TGI,OVCAR-8 ovarian,16.1 µM and 24.1 µM
same,TGI,NCI-H226 lung,15.6 µM and 15.4 µM
same,TGI,OVCAR-5 ovarian,14 µM and 13.9 µM
same,TGI,MALME-3M melanoma,3.36 µM and 3.64 µM
same,TGI,RPMI-8226 leukemia,4 µM and 4.96 µM
same,TGI,UO-31 renal,14.6 µM and 19 µM
same,TGI,SNB-75 CNS,21.9 µM and 20.3 µM
same,TGI,HS 578T breast,28.4 µM and 21.2 µM
same,TGI,NCI-H460 lung,3.71 µM and 3.57 µM
same,TGI,MDA-N,6.96 µM and 5.28 µM
same,TGI,HCC-2998 colon,4.26 µM and 4.73 µM
same,TGI,UACC-257 melanoma,7.65 µM and 4.74 µM
same,TGI,SK-MEL-2 melanoma,4.96 µM and 5.35 µM
same,TGI,TK-10 renal,17.2 µM and 19.6 µM
same,TGI,U251 CNS,6.39 µM and 10.2 µM
same,TGI,CAKI-1 renal,17.7 µM and 15.3 µM
same,TGI,MDA-MB-435,5.79 µM and 5.96 µM
same,TGI,HL-60(TB) leukemia,6.24 µM and 5.02 µM
same,TGI,M14 melanoma,3.36 µM and 3.35 µM
same,TGI,DU-145 prostate,15.1 µM and 17.1 µM
same,TGI,SNB-19 CNS,16.6 µM and 16.8 µM
same,TGI,HCT-15 colon,14.9 µM and 15.4 µM
same,TGI,NCI-H23 lung,25.6 µM and 24.4 µM
same,TGI,CCRF-CEM leukemia,7.46 µM and 7.98 µM
same,TGI,IGROV1 ovarian,19.4 µM and 21.5 µM
same,TGI,SW-620 colon,5.84 µM and 8 µM
same,TGI,HOP-62 NSCLC,11.1 µM and 8.4 µM
same,TGI,K-562 leukemia,3.97 µM and 4.45 µM
same,TGI,LOX IMVI melanoma,3 µM and 3.97 µM
same,TGI,ACHN renal,19.1 µM and 20.5 µM
same,TGI,SK-MEL-28 melanoma,4.08 µM and 4.04 µM
same,TGI,SK-OV-3 ovarian,20.9 µM and 23.6 µM
